According to publication PMC6769459, “Inhibition of Tyrosine-Phosphorylated STAT3 in Human Breast and Lung Cancer Cells by Manuka Honey is Mediated by Selective Antagonism of the IL-6 Receptor” (International Journal of Molecular Sciences, 2019):
“And” between values parts separate entries of the source, which are not always exact repeats. Equal values may be shown once. “Also recorded” adds a separate entry of the source.

Tests used:
[1] = target: T1, IL-6Rα (Homo sapiens, UniProt P08887); assay: ELISA-based competitive binding assay, IL-6 binding to immobilized IL-6Rα
T1 construct: purchased R&D Systems
T1 sequence (P08887 20-355 limits assumed): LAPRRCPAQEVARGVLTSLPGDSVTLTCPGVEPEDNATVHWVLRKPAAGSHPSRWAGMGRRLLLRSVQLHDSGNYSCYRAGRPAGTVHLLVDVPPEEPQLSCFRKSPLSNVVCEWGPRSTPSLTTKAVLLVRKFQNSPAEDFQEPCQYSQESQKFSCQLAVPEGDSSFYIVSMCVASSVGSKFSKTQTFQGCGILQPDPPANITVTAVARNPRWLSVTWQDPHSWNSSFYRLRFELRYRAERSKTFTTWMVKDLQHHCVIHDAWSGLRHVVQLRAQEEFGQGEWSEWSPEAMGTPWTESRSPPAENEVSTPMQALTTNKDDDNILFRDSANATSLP
Method: We used an ELISA-based assay to determine if MH can bind to recombinant IL-6Rα, IL-8R, and IL-11Rα proteins (all purchased from R&D Systems; Minneapolis, MN, USA). IL-6Rα (2 μg/mL), IL-8R (0.5 μg/mL), or IL-11Rα (1 μg/mL) proteins were coated on 96-well plates by overnight incubation at 4 °C. The plates were then washed with PBS + 0.05% tween 20 and blocked with PBS containing 1% BSA for 1 h at room temperature. For competition assay, various concentrations of MH (0.03–3%) were added to recombinant receptor-coated plates and incubated for 1 h at room temperature. After thorough washing, recombinant IL-6, IL-8, or IL-11 cytokines were added (50 ng/mL) and incubated for 1 h at 37 °C. The plates were then thoroughly washed and biotin-conjugated mAbs to IL-6 (0.25 µg/mL), IL-8 (0.5 µg/mL) or IL-11 (0.5 µg/mL) were added for 1 h at room temperature. After another round of washing, HRP-conjugated streptavidin was added for 30 min, washed, and developed by adding 3,3′,5,5′-Tetramethylbenzidine (TMB) substrate for 10 min. Additionally, the potential effect of flavonoid compounds (luteolin, quercetin, galangin, and chrysin; dose range 0.5–50 μM) on binding to IL-6Rα was investigated in the same assay. The dose-response was modeled based on mass-action kinetic drug-response interactions.

[2] = test system: p-STAT3 in MDA-MB-231 cells; assay: Western blot of p-STAT3 / total STAT3 in MDA-MB-231 cells; format: cell-based, human; settings: for IC50: Homo sapiens, MDA-MB-231, 1 h, MDA-MB-231, 1 h treatment, densitometry of Western blots, approximate, read-out: IC50 for inhibition of p-STAT3 levels
Method: The expression of different proteins involved in IL-6 signaling pathway was analyzed by Western blots, as previously described. Briefly, MDA-MB-231 or A549 cells (2 × 10^6 cells/well) were seeded overnight in DMEM/RPMI plus 2% FBS, followed by incubation with MH or sugar control (SC) in 5% FBS-DMEM/RPMI for different times, as indicated in the figures. In some studies, we investigated the effect of treatment with different flavonoid compounds on p-STAT3 expression using a range of doses (0.4–50 μM). In other experiments, we also studied the effect of incubating MDA-MB-231 cells in the presence of Brefeldin A (BFA; 1 mg/mL) alone or with 1% MH for 4 h on p-STAT3 levels. Cell extracts were prepared in RIPA buffer and subjected to Western blot analysis using antibodies (purchased from Cell Signaling Technology, Danvers, MA, USA) specific to total STAT3 (t-STAT3), tyrosine-phosphorylated (Tyr705) STAT3 (p-STAT3), gp130, JAK2, tyrosine-phosphorylated (Tyr1007/1008) JAK2 (p-JAK2), tyrosine-phosphorylated (Tyr416) Src family (p-Src), total Src, and β-actin. Densitometric analysis of the band intensity on the blots was done using ImageJ (National Institutes of Health, USA). We modeled the binding inhibition pharmacodynamics of p-STAT3 levels as standard drug-receptor interactions based on mass-action kinetics. Specifically, dose response was modelled as: Y=[L]/[L]+K where Y is the receptor occupancy, L is the ligand concentration, and K is a compound-specific association constant.
Statistical significance between control and treated groups was analyzed using the unpaired, two-tailed Student’s t-test, using the statistical program of GraphPad Prism version 6 software (San Diego, CA, USA). For multiple comparisons, we used ordinary two-way ANOVA (GraphPad Prism). Differences between the experimental groups were considered significant when p values were <0.05. Nonlinear regression best-fit curve analysis was used to determine the IC50 for p-STAT3 inhibition.

[3] = test system: p-STAT3 in lung cancer cells; design: method as in PMID 25830055; settings: 66 μM, 12–24 h; cited from earlier work
[4] = test system: STAT3 in different types of cancer cells; design: method as in PMID 16651438, PMID 23145121, PMID 24525192, PMID 24998588, PMID 26527884; settings: different cancer cell types; cited from earlier work
[5] = test system: p-STAT3 in human bladder cancer cells; design: method as in PMID 29805643; settings: 40–80 μM, mostly after 24 h; cited from earlier work
[6] = 10-fold lower concentration (5 μM)

| inhibition of IL-6 binding to IL-6Rα ([1]; 50 μM flavonoid) | inhibition of IL-6 binding to IL-6Rα [1, 6] | IC50 [2] | SMILES | p-STAT3 levels ([2]; MDA-MB-231, 4 h, Brefeldin A 1 mg/mL alone or with 1% MH) | p-STAT3 levels [3] | concentration range at which inhibitory effects were observed [4] | p-STAT3 [5] | binding to IL-6Rα ([1]; up to 50 μM) |
| --- | --- | --- | --- | --- | --- | --- | --- | --- |
| 34.3% | decreased but significant inhibition | ~4.4 µM and 1.2 µg/mL | O=c1c(O)c(-c2ccccc2)oc2cc(O)cc(O)c12 [galangin] | – | – | – | – | – |
| – | – | – | C[C@H]1CCC/C=C/[C@@H]2C[C@H](O)C[C@H]2[C@H](O)/C=C/C(=O)O1 [Brefeldin A] | significant loss | – | – | – | – |
| 22.4% | – | ~3.5 µM and 1 µg/mL | O=c1cc(-c2ccc(O)c(O)c2)oc2cc(O)cc(O)c12 [luteolin] | – | – | 20 to 50 µM | – | – |
| 31.8% | decreased but significant inhibition | ~7.7 µM and 2 µg/mL | O=c1cc(-c2ccccc2)oc2cc(O)cc(O)c12 [chrysin] | – | – | – | inhibit p-STAT3 | – |
| – | – | ~70.2 µM and 18 µg/mL | O=C1C[C@@H](c2ccccc2)Oc2cc(O)cc(O)c21 [pinocembrin] | – | – | – | – | no significant binding; also recorded: inability to detect any binding |

| SMILES | inhibition of IL-6 binding to IL-6Rα ([1]; 50 μM flavonoid) | inhibition of IL-6 binding to IL-6Rα [1, 6] | IC50 [2] | p-STAT3 levels ([2]; MDA-MB-231, 4 h, Brefeldin A 1 mg/mL alone or with 1% MH) | p-STAT3 levels [3] | concentration range at which inhibitory effects were observed [4] | p-STAT3 [5] | binding to IL-6Rα ([1]; up to 50 μM) |
| --- | --- | --- | --- | --- | --- | --- | --- | --- |
| O=c1c(O)c(-c2ccc(O)c(O)c2)oc2cc(O)cc(O)c12 [quercetin] | 29.2% | decreased but significant inhibition | ~51 µM and 15.4 µg/mL | – | reduce p-STAT3 levels | – | – | – |
